A short description of experiment [1]: Inhibition of human DNA polymerase epsilon.
For another experiment, the target named is T1, DNA polymerase lambda (Homo sapiens, UniProt Q9UGP5).
T1 sequence (Q9UGP5 whole entry): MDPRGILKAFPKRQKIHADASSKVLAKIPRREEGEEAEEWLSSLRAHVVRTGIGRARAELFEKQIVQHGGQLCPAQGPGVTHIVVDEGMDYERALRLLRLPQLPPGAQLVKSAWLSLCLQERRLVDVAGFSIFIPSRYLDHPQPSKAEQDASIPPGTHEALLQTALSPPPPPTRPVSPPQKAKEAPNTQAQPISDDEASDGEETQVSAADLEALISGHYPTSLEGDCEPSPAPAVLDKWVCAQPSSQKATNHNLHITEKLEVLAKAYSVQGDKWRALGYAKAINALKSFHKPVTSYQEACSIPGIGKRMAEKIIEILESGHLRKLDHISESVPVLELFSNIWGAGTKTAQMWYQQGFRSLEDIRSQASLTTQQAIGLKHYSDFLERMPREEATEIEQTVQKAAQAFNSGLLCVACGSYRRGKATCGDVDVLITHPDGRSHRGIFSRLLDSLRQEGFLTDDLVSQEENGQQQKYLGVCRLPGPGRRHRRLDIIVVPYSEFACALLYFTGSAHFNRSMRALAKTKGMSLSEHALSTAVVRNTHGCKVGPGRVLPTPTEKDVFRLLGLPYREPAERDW
Description: Inhibition of human DNA polymerase lambda.

Experiment [2] in a line: Inhibition of human DNA polymerase gamma.
For experiment [3], the target named is T2, DNA polymerase delta catalytic subunit (Homo sapiens, UniProt P28340).
T2 sequence (P28340 whole entry): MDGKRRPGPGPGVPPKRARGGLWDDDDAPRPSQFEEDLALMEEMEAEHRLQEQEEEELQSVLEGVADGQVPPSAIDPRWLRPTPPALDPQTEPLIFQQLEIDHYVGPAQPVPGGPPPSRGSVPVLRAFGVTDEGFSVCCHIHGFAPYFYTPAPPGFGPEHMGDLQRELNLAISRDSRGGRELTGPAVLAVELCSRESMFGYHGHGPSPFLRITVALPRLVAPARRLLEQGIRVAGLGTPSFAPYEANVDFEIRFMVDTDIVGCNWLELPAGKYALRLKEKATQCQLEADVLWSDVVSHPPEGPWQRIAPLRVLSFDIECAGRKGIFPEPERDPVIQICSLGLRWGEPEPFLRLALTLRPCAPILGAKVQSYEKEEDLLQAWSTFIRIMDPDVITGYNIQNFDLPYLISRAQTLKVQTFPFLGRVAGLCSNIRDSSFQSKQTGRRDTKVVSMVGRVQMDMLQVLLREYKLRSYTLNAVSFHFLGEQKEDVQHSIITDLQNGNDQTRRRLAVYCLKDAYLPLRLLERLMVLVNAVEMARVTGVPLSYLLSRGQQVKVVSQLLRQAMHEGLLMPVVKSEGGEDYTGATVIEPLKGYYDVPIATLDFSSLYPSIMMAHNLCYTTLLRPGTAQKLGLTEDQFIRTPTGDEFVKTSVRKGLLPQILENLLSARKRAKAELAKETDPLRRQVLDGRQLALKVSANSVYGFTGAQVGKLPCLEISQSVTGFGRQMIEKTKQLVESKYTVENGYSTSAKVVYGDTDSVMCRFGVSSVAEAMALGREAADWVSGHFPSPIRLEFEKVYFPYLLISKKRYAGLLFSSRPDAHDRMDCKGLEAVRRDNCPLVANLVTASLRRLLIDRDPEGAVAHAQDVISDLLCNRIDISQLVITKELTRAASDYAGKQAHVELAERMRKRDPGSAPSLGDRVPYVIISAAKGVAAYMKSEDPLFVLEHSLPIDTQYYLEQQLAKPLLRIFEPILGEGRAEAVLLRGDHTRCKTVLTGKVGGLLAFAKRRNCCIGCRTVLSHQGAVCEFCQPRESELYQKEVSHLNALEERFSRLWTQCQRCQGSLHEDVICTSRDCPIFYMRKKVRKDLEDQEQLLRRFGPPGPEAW
Description: Inhibition of human DNA polymerase delta.

For the next experiment, the target named is DNA polymerase beta (Rattus norvegicus, UniProt P06766). Description: Inhibition of rat DNA polymerase beta.
Experiment [4] in a line: Inhibition of calf DNA polymerase alpha. More on the design: species or system Bos taurus.

By pIC50 is commonly meant the negative decadic logarithm of the IC50, by convention in mol/L. Low values mean a large IC50, high ones a small IC50.

Molecules are shown by their SMILES. pIC50: −log10 of the molar value.

For the molecule `COc1cc(O)c2c(=O)c(CO)c(C)oc2c1`, the pIC50 in experiment [1] was < 3.00; against DNA polymerase lambda it was 3.34; in experiment [2] it was < 3.00; in experiment [3] it was < 3.00; against DNA polymerase beta, < 3.00; in experiment [4], < 3.00.
`CC1Cc2c(C=O)ccc(O)c2C(=O)O1` (configuration not stated): the pIC50 was < 3.00 in experiment [1]; 3.56 against DNA polymerase lambda; < 3.00 in experiment [2]; < 3.00 in experiment [3]; < 3.00 on DNA polymerase beta; < 3.00 in experiment [4].
Regarding `COc1ccc(C)c2c1C(=O)OC(C)C2` (configuration not stated), the pIC50 is < 3.00 in experiment [1]; 4.31 against DNA polymerase lambda; < 3.00 in experiment [2]; < 3.00 in experiment [3]; < 3.00 against DNA polymerase beta; < 3.00 in experiment [4].
Take `COc1cccc2c1C(=O)OC(C)C2` (configuration not stated): the pIC50 is < 3.00 in experiment [1]; 3.74 on DNA polymerase lambda; < 3.00 in experiment [2]; < 3.00 in experiment [3]; < 3.00 against DNA polymerase beta; < 3.00 in experiment [4].
Consider `CC1Cc2cccc(O)c2C(=O)O1` (configuration not stated) [MELLEIN], for which the pIC50 is < 3.00 in experiment [1]; 3.50 on DNA polymerase lambda; < 3.00 in experiment [2]; < 3.00 in experiment [3]; < 3.00 against DNA polymerase beta; < 3.00 in experiment [4].
For `COc1cccc2c1C(O)CCC2O` (configuration not stated) [NODULISPOROL], the negative-log IC50 (pIC50) in experiment [1] was < 3.00; against DNA polymerase lambda, 3.77; in experiment [2] it was < 3.00; in experiment [3] it was < 3.00; on DNA polymerase beta, < 3.00; in experiment [4] it was < 3.00.
`COc1cccc2c1C(=O)CCC2O` (configuration not stated) [NODULISPORONE]: the pIC50 in experiment [1] was < 3.00; at DNA polymerase lambda, 4.09; in experiment [2], < 3.00; in experiment [3], < 3.00; at DNA polymerase beta, < 3.00; in experiment [4], < 3.00.

The record behind these values is ChEMBL document CHEMBL1143033, “Nodulisporol and Nodulisporone, novel specific inhibitors of human DNA polymerase lambda from a fungus, Nodulisporium sp” (Bioorg Med Chem, 2007).
